# Results taken from article PMC9694146, “Novel [1,2,4]triazolo[3,4-b][1,3,4]thiadiazine and [1,2,4]triazolo[3,4-b][1,3,4]thiadiazepine Derivatives: Synthesis, Anti-Viral In Vitro Study and Target Validation Activity” (Molecules, 2022).
# Tested on: not listed separately
# Assay: Cytotoxicity, methyltetrazolium (MTT) assay on MDCK cell monolayer
# Format: cell-based
# Conditions: dog; MDCK cells, 72 h, MTT; read-out: CC50, cytotoxic concentration; the concentration resulting in 50% death of cells
# Procedure: (§1) The cytotoxic properties of the compounds were investigated in a separate series of experiments. A series of threefold dilutions (300–3.7 µg/mL) were prepared from the test compounds, after which they were added to the wells of plates with a monolayer of MDCK cells (ATCC CCL-34). […] The plates with cells were incubated for 2 h. The precipitate was dissolved in DMSO (0.1 mL per well). The optical density in the wells was measured on a Thermo Multiskan FC plate photometer (Thermo Fisher Scientific, USA) at a wavelength of 540 nm. Based on the obtained data, CC50 values (the concentration of the compound, leading to a decrease in optical density by half, compared to wells without the addition of compounds) were calculated.
row,SMILES,CC50 at 72 h
1,"Sc1nncn1N=CC#Cc1ccccc1 [Compound 1a, 4-((3-phenylprop-2-yn-1-ylidene)amino)-4H-1,2,4-triazole-3-thiol]",134 ± 11 µM
2,"Cc1nnc(S)n1N=CC#Cc1ccccc1 [Compound 1b, 5-methyl-4-((3-phenylprop-2-yn-1-ylidene)amino)-4H-1,2,4-triazole-3-thiol]",126 ± 11.3 µM
3,"CCc1nnc(S)n1N=CC#Cc1ccccc1 [Compound 1c, 5-ethyl-4-((3-phenylprop-2-yn-1-ylidene)amino)-4H-1,2,4-triazole-3-thiol]",119 ± 9.6 µM
4,"Sc1nncn1NCC#Cc1ccccc1 [Compound 2a, 4-((3-phenylprop-2-yn-1-yl)amino)-4H-1,2,4-triazole-3-thiol]",> 1300 µM
5,"Cc1nnc(S)n1NCC#Cc1ccccc1 [Compound 2b, 5-methyl-4-((3-phenylprop-2-yn-1-yl)amino)-4H-1,2,4-triazole-3-thiol]",> 1200 µM
6,"CCc1nnc(S)n1NCC#Cc1ccccc1 [Compound 2c, 5-ethyl-4-((3-phenylprop-2-yn-1-yl)amino)-4H-1,2,4-triazole-3-thiol]",487 ± 22.5 µM
7,"CCCc1nnc(S)n1NCC#Cc1ccccc1 [Compound 2d, 5-propyl-4-((3-phenylprop-2-yn-1-yl)amino)-4H-1,2,4-triazole-3-thiol]",138 ± 12 µM
8,"C1=Nn2cnnc2S/C1=C\c1ccccc1 [Compound 6a, (Z)-7-benzylidene-7H-[1,2,4]triazolo[3,4-b][1,3,4]thiadiazine]",578 ± 32.3 µM
9,"Cc1nnc2n1N=C/C(=C/c1ccccc1)S2 [Compound 6b, (Z)-7-benzylidene-3-methyl-7H-[1,2,4]triazolo[3,4-b][1,3,4]thiadiazine]",433 ± 37.6 µM
10,"CCc1nnc2n1N=C/C(=C/c1ccccc1)S2 [Compound 6c, (Z)-7-benzylidene-3-ethyl-7H-[1,2,4]triazolo[3,4-b][1,3,4]thiadiazine]",979 ± 55.1 µM
11,"CCCc1nnc2n1N=C/C(=C/c1ccccc1)S2 [Compound 6d, (Z)-7-benzylidene-3-propyl-7H-[1,2,4]triazolo[3,4-b][1,3,4]thiadiazine]",> 1100 µM
12,"C1=Nn2cnnc2SC(c2ccccc2)=C1 [Compound 7a, 8-phenyl-[1,2,4]triazolo[3,4-b][1,3,4]thiadiazepine]",42.9 ± 3.2 µM
13,"CCc1nnc2n1N=CC=C(c1ccccc1)S2 [Compound 7c, 3-ethyl-8-phenyl-[1,2,4]triazolo[3,4-b][1,3,4]thiadiazepine]",6.1 ± 0.3 µM
14,"C(=C1\CNn2cnnc2S1)/c1ccccc1 [Compound 8a, (Z)-7-benzylidene-6,7-dihydro-5H-[1,2,4]triazolo[3,4-b][1,3,4]thiadiazine]",> 1300 µM
15,"Cc1nnc2n1NC/C(=C/c1ccccc1)S2 [Compound 8b, (Z)-7-benzylidene-3-methyl-6,7-dihydro-5H-[1,2,4]triazolo[3,4-b][1,3,4]thiadiazine]",> 1200 µM
16,"CCc1nnc2n1NC/C(=C/c1ccccc1)S2 [Compound 8c, (Z)-7-benzylidene-3-ethyl-6,7-dihydro-5H-[1,2,4]triazolo[3,4-b][1,3,4]thiadiazine]",> 1100 µM
17,"CCCc1nnc2n1NC/C(=C/c1ccccc1)S2 [Compound 8d, (Z)-7-benzylidene-3-propyl-6,7-dihydro-5H-[1,2,4]triazolo[3,4-b][1,3,4]thiadiazine]",> 1100 µM
18,"C1=C(c2ccccc2)Sc2nncn2NC1 [Compound 10a, 8-phenyl-5,6-dihydro-[1,2,4]triazolo[3,4-b][1,3,4]thiadiazepine]",> 1300 µM
19,"Cc1nnc2n1NCC=C(c1ccccc1)S2 [Compound 10b, 3-methyl-8-phenyl-5,6-dihydro-[1,2,4]triazolo[3,4-b][1,3,4]thiadiazepine]",> 1100 µM
20,"CCc1nnc2n1NCC=C(c1ccccc1)S2 [Compound 10c, 3-ethyl-8-phenyl-5,6-dihydro-[1,2,4]triazolo[3,4-b][1,3,4]thiadiazepine]",972 ± 66.4 µM
21,"CCC(CC)O[C@@H]1C=C(C(=O)O)C[C@H](N)[C@H]1NC(C)=O [Oseltamivir carboxylate, reference compound]",> 100 µM
22,"CC(N)C12CC3CC(CC(C3)C1)C2 (centres unmarked) [Rimantadine, reference compound]",312 ± 22.8 µM

# Tested on: MDCK cells (ATCC CCL-34)
# Assay: as above
# Format: cell-based
# Conditions: 300 μg/mL, 1100–1300 μM
# Procedure: as §1
row,SMILES,cytotoxicity at the highest concentration used
1,"CCCc1nnc2n1N=C/C(=C/c1ccccc1)S2 [Compound 6d, (Z)-7-benzylidene-3-propyl-7H-[1,2,4]triazolo[3,4-b][1,3,4]thiadiazine]",did not demonstrate cytotoxicity

# Same assay, conditions: 72 h, MTT
row,SMILES,"CC50, cytotoxic concentration; the concentration resulting in 50% death of cells"
1,"CCc1nnc2n1N=CC=C(c1ccccc1)S2 [Compound 7c, 3-ethyl-8-phenyl-[1,2,4]triazolo[3,4-b][1,3,4]thiadiazepine]",one-digit micromoles

# Tested on: not given
# Assay: not given
# Conditions: not given
row,SMILES,melting point
1,CCCc1nnc2n1NCC=C(c1ccccc1)S2,103 to 104 °C
2,CCCc1nnc2n1N=CC=C(c1ccccc1)S2,88 to 89 °C
